Experimental data as given in patent US4185010A, “Nonapeptides” (American Home Products Corporation, priority 1978, dated 1980).
Where a SMILES comes first, the peptide text is derived from it. Bridges are numbered along the chain shown (N, C = ends). [ ]: non-standard residue; d: D form. Abu = CC[C@H](N)C(=O)O

Assays:
Type in all cases: in vivo
growth hormone (GH) = assay: Arginine-stimulated hormone release in Nembutal-anesthetized rats, growth hormone by radioimmunoassay; conditions: albino male rats, 1,000 μg/kg subcutaneous, blood 15 min after dose (5 min after arginine); control 454 ± 106
Experimental: (§1) Albino male rate are administered Nembutal intraperitoneally at a dose of 50 milligrams per kilogram. Fifteen minutes later a subcutaneous injection of the test compound or physiological saline (control) is administered. Ten minutes later 0.5 milliliters of arginine (300 milligrams per milliliter, pH 7.2) is injected into the heart. Five minutes after receipt of the arginine the rats are decapitated and blood is collected into trasylol-EDTA. An appropriate aliquot is assayed for growth hormone (GH), insulin, and glucagon by radioimmunoassay.

insulin = assay: Arginine-stimulated hormone release in Nembutal-anesthetized rats, insulin by radioimmunoassay; conditions: albino male rats, 1,000 μg/kg subcutaneous, blood 15 min after dose (5 min after arginine); control 269 ± 37
Experimental: as §1

glucagon = assay: Arginine-stimulated hormone release in Nembutal-anesthetized rats, glucagon by radioimmunoassay
Experimental: as §1

SMILES: CC[C@@H]1NC(=O)[C@H](CCCCN)NC(=O)[C@@H](Cc2c[nH]c3ccccc23)NC(=O)[C@H](Cc2ccccc2)NC(=O)[C@H](Cc2ccccc2)NC(=O)[C@H](Cc2c[nH]cn2)NC(=O)[C@@H](N)CSSC[C@@H](C(=O)O)NC(=O)[C@H](Cc2ccccc2)NC1=O [Example 2, L-Cysteinyl-L-histidyl-L-phenylalanyl-L-phenylalanyl-D-tryptophyl-L-lysyl-L-α-aminobutyryl-L-phenylalanyl-L-cysteine cyclic (1-9) disulfide] (H-CHFF[dW]K[Abu]FC-OH; disulfide 1-9)
- GH (growth hormone (GH)): 413 ± 98 ng/mL
- INS (insulin): 262 ± 39 μU/ml
- GLUN (glucagon; albino male rats, 1,000 μg/kg subcutaneous, blood 15 min after dose (5 min after arginine), control 60 ± 10, p<0.05): 31 ± 5 pg/mL
- selective inhibition of glucagon release versus growth hormone and insulin levels (glucagon; without materially altering blood serum growth hormone and insulin levels): selectively inhibit glucagon release
